The assay addresses urease (Canavalia ensiformis, UniProt P07374). In words: biochemical.

Consider one molecule from paper PMC11434752, “Algerian Prickly Pear Seed By-Products: Fatty Acids Composition, Antioxidant, Enzyme Inhibitory Activities towards Tyrosinase, Urease, α-Amylase, and Cholinesterase, along with the Ability to Protect from Thermal Protein Denaturation” (Pharmaceuticals, 2024).

pIC50: −log10 of the molar value.

Chain of urease (P07374 whole entry): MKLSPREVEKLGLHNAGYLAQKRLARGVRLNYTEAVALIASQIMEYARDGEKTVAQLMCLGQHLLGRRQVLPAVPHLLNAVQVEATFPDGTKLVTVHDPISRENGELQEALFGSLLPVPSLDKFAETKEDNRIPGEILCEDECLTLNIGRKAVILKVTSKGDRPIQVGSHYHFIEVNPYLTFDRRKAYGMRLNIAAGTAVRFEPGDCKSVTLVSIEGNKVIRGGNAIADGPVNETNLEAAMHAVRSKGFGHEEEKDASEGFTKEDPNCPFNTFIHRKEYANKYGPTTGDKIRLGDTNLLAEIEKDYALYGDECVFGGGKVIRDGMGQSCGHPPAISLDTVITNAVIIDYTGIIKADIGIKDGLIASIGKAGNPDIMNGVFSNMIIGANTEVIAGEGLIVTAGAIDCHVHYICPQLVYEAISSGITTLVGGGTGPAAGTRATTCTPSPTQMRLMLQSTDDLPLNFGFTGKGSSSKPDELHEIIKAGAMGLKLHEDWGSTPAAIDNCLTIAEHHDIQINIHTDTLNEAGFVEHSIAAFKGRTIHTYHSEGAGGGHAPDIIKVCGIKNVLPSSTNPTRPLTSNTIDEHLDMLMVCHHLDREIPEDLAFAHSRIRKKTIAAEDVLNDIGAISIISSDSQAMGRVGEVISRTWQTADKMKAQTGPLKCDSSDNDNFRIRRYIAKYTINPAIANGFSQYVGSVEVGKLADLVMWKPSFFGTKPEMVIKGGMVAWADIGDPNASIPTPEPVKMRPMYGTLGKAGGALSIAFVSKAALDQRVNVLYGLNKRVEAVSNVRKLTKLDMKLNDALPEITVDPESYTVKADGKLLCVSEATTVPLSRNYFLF

As usually defined, the pIC50 is the IC50 on a negative log10 scale, so that one unit is a factor of ten. A higher pIC50 goes with a low IC50. For `NC(N)=S` [Thiourea], the pIC50 is 3.96.
